Laboratory results published in PMC8635029 (Frontiers in Pharmacology, 2021).

What was measured:
Cyclooxygenase COX-2 = target: T1, Cyclooxygenase COX-2 (Homo sapiens, UniProt P35354); assay: In vitro SafetyScreen panel; type: biochemical
T1 construct: Eurofins Discovery (contract panel) Item PP223
Method: (§1) In vitro off-target pharmacological activities of HSK21542 were evaluated on 86 targets using a SafetyScreen panel (Item PP223, target selectivity panel) and the corresponding methods could be found at https://www.eurofinsdiscoveryservices.com/.

Monoamine Oxidase MAO-B = target: T2, Monoamine Oxidase MAO-B (Homo sapiens, UniProt P27338); assay: In vitro SafetyScreen panel; type: biochemical
T2 construct: Eurofins Discovery (outsourced panel) PP223
T2 sequence (P27338 whole entry): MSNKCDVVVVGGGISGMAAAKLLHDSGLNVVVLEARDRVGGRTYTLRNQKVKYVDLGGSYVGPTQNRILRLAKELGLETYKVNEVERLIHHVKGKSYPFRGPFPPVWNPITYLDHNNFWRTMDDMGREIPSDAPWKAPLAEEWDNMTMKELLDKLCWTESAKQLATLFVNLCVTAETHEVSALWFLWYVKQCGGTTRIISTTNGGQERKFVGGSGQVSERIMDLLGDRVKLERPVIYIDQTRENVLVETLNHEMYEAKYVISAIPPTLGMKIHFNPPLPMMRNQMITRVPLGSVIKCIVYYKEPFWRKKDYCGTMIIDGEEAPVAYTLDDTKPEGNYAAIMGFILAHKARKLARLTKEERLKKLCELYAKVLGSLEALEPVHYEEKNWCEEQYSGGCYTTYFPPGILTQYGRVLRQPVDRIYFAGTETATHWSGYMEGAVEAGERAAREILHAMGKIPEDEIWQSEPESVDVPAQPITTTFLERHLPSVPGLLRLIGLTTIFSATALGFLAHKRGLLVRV
Method: as §1

[1] = target: T3, Peptidase, CTSG (Cathepsin G) (Homo sapiens, UniProt P08311); assay: In vitro SafetyScreen panel; type: biochemical
T3 construct: Eurofins Discovery (outsourced panel) PP223
T3 sequence (P08311 21-255): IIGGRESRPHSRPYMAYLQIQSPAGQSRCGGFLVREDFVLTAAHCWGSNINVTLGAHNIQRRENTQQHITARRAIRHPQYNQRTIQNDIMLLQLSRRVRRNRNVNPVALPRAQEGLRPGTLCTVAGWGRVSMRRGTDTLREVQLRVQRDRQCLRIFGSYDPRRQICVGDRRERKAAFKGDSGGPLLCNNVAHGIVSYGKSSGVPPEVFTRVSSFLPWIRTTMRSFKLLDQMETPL
Method: as §1

Monoamine Oxidase MAO-A = target: T4, Monoamine Oxidase MAO-A (Homo sapiens, UniProt P21397); assay: In vitro SafetyScreen panel; type: biochemical
T4 construct: Eurofins Discovery (contract panel) Item PP223
T4 sequence (P21397 whole entry): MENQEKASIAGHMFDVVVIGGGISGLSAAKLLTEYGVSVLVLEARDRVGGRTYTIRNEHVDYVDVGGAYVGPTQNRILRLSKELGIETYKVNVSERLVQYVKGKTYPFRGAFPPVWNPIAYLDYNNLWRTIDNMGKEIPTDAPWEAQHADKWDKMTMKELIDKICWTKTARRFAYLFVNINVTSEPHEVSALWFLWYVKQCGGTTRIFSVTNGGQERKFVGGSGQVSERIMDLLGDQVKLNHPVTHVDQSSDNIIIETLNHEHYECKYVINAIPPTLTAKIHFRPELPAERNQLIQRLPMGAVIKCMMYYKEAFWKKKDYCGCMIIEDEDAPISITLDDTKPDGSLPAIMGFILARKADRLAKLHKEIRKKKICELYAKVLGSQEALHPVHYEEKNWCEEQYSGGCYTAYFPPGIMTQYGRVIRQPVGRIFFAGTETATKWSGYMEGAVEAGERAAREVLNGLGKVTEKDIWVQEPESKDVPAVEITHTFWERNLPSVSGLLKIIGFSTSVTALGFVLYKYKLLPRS
Method: as §1

[2] = target: T5, Protein Tyrosine Kinase, Insulin Receptor (Homo sapiens, UniProt P06213); assay: In vitro SafetyScreen panel; type: biochemical
T5 construct: Eurofins Discovery (outsourced panel) PP223
Method: as §1

[3] = target: T6, Cholinesterase, Acetyl, ACES (Homo sapiens, UniProt P22303); assay: In vitro SafetyScreen panel; type: biochemical
T6 construct: Eurofins Discovery (contract panel) PP223
Method: as §1

Cyclooxygenase COX-1 = target: T7, Cyclooxygenase COX-1 (Homo sapiens, UniProt P23219); assay: In vitro SafetyScreen panel; type: biochemical
T7 construct: Eurofins Discovery (contract panel) PP223
Method: as §1

[4] = target: T8, Protein Tyrosine Kinase, LCK (Homo sapiens, UniProt P06239); assay: In vitro SafetyScreen panel; type: biochemical
T8 construct: Eurofins Discovery (outsourced panel) PP223
Method: as §1

mice = assay: Locomotor activity test (sedation); conditions: 0.4 mg/kg, 15 min post-dosing
human κ opioid receptor [5] = target: T9, human κ opioid receptor (Homo sapiens, UniProt P41145); assay: cAMP accumulation assay (forskolin-induced); type: cell-based; conditions: 2 μM forskolin, 30 min; read-out: EC50 for inhibition of forskolin-induced cAMP accumulation
T9 construct: expressed in transfected cells; cell membranes
T9 sequence (P41145 whole entry): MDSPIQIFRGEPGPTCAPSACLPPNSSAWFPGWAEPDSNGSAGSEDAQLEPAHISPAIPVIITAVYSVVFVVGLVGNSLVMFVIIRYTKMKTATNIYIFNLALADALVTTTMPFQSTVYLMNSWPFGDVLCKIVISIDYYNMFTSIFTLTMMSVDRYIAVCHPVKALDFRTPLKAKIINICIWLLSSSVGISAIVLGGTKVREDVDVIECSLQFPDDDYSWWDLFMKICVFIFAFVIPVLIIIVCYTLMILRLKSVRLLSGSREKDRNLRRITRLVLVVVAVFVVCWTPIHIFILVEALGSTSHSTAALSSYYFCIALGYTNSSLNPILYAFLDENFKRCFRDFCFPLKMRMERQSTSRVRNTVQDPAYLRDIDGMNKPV
Method: PathHunter® U2OS OPRK1 β-Arrestin cell line (DiscoverX) was maintained in McCoy’s 5A with 10% FBS, 250 μg/ml Hygromycin B and 500 μg/ml G418. When the cells reached to 80–90% confluence, they were collected and resuspended in HBSS (1X) containing 50 mM HEPES, 5 mM IBMX and 1% BSA stabilizer (lance® UltracAMP Kit, PerkinElmer) by adjusting the cell density to 3 × 10^5 cells/mL. The cells were divided into 384-well white plate (Corning®3572) at a volume of 5 μL, and were treated with compounds and 2 μM forskolin (an inducer of intracellular cAMP formation) for 30 min at room temperature. Subsequently, 5 μL of Eu-cAMP Tracer Working Solution and 5 μL of Ulight-anti-cAMP Working Solution per well were added to reach a final volume of 20 μL. The plate was incubated for 1 h at room temperature in the dark. The cAMP levels were then determined by using a microplate reader with TR-FRET assay ([Wang et al., 2014]). The results was expressed as (1–Signal[compound]/Signal[control]) × 100.

[6] = target: T10, Nicotinic Acetylcholine α1, Bungarotoxin (Homo sapiens, UniProt P02708+P07510+Q07001); assay: In vitro SafetyScreen panel; type: binding
T10 construct: Eurofins Discovery (outsourced panel) PP223

ICR mice = assay: Measurement of respiration (whole body plethysmography); type: in vivo; conditions: 2 mg/kg
Method: A whole body plethysmography (DSI, US) was used to measure respiration in freely moving ICR mice (half male and half female) as described previously ([Manglik et al., 2016]; [Hill et al., 2018a]; [Hill et al., 2018b]) with some modifications. The respiratory frequency was recorded and then averaged for over 5-min period. The baseline values were recorded for 10 min before dosing. The mice were then removed from the chambers and given drugs, and respiration was then measured for 45 min.

Dopamine D2L = target: T11, Dopamine D2L (Homo sapiens, UniProt P14416); assay: In vitro SafetyScreen panel; type: binding
T11 construct: Eurofins Discovery (contract panel) Item PP223
Method: as §1

[7] = target: T12, Glutamate, Metabotropic, mGlu5 (Homo sapiens, UniProt P41594); assay: In vitro SafetyScreen panel; type: binding
T12 construct: Eurofins Discovery (contract panel) Item PP223
T12 sequence (P41594 21-1212): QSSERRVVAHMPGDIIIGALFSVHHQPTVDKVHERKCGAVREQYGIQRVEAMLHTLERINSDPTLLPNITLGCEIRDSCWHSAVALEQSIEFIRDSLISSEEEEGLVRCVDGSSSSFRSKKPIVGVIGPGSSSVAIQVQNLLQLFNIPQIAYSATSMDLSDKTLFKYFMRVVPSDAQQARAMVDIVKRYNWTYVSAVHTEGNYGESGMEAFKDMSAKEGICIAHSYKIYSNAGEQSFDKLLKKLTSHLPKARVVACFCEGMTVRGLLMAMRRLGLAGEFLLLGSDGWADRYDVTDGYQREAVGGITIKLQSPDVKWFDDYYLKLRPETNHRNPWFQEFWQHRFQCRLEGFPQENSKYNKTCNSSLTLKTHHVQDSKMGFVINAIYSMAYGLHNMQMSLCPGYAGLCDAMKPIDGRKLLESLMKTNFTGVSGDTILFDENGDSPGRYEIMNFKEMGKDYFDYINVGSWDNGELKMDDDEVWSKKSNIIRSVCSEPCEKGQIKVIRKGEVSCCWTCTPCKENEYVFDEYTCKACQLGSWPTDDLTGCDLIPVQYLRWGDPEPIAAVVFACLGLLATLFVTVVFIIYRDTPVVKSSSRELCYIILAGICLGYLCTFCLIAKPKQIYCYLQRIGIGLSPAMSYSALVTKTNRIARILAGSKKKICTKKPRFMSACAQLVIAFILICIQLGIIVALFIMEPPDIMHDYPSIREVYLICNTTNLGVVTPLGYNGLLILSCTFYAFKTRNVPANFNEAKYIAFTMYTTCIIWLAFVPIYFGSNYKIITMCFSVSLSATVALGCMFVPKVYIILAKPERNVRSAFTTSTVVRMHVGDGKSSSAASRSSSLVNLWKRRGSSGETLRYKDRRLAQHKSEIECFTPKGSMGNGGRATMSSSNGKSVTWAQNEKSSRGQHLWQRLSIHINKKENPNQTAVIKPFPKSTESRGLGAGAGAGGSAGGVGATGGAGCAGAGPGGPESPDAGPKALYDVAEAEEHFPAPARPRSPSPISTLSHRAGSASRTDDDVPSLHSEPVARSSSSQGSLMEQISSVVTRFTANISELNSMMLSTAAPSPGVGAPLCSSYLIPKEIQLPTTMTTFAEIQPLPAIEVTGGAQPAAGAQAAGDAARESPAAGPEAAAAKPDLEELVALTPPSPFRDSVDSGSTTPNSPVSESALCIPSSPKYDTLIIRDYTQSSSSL
Method: as §1

Melanocortin MC4 = target: T13, Melanocortin MC4 (Homo sapiens, UniProt P32245); assay: In vitro SafetyScreen panel; type: binding
T13 construct: Eurofins Discovery (contract panel) Item PP223
T13 sequence (P32245 whole entry): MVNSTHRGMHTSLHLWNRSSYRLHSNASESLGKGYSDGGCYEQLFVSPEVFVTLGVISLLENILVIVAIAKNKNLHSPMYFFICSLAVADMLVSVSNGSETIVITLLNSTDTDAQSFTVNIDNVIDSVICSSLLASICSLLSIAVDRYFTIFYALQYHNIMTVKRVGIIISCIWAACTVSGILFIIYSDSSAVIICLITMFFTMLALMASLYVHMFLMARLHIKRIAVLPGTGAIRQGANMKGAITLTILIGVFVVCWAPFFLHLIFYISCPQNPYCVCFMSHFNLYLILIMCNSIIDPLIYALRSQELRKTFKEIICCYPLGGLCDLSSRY
Method: as §1

[8] = target: T14, Platelet Activating Factor (PAF) (Homo sapiens, UniProt P25105); assay: In vitro SafetyScreen panel; type: binding
T14 construct: Eurofins Discovery (outsourced panel) PP223
T14 sequence (P25105 whole entry): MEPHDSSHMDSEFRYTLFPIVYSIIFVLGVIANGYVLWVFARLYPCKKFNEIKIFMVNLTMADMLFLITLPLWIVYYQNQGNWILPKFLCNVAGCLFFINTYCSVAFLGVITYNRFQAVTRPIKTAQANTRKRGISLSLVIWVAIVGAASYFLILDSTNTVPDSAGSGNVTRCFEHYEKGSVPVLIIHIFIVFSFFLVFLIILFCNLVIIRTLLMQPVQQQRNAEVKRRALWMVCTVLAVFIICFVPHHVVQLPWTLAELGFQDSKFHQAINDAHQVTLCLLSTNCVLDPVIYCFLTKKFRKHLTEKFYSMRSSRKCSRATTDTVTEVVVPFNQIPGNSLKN
Method: as §1

[9] = target: T15, Transporter, Norepinephrine (NET) (Homo sapiens, UniProt P23975); assay: In vitro SafetyScreen panel; type: binding
T15 construct: Eurofins Discovery (contract panel) PP223
Method: as §1

Muscarinic M2 = target: T16, Muscarinic M2 (Homo sapiens, UniProt P08172); assay: In vitro SafetyScreen panel; type: binding
T16 construct: Eurofins Discovery (outsourced panel) PP223
T16 sequence (P08172 whole entry): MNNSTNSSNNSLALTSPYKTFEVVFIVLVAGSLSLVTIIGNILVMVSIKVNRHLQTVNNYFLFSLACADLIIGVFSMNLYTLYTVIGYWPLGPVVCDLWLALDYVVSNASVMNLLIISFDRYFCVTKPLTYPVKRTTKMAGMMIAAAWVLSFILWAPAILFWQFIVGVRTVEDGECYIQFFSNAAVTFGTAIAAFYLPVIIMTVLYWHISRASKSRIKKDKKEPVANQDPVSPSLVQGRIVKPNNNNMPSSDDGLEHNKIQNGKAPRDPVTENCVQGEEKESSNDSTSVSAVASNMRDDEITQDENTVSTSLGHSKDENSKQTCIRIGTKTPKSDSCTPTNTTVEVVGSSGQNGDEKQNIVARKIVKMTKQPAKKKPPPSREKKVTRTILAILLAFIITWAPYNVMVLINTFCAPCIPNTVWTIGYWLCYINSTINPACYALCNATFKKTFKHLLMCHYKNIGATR
Method: as §1

Adrenergic α1B = target: T17, Adrenergic α1B (Rattus norvegicus, UniProt P15823); assay: In vitro SafetyScreen panel; type: binding
T17 construct: Eurofins Discovery (contract panel) PP223
Method: as §1

Muscarinic M4 = target: T18, Muscarinic M4 (Homo sapiens, UniProt P08173); assay: In vitro SafetyScreen panel; type: binding
T18 construct: Eurofins Discovery (outsourced panel) PP223
Method: as §1

[10] = target: T19, Cholecystokinin CCK2 (CCKB) (Homo sapiens, UniProt P32239); assay: In vitro SafetyScreen panel; type: binding
T19 construct: Eurofins Discovery (contract panel) PP223
Method: as §1

Dopamine D1 = target: T20, Dopamine D1 (Homo sapiens, UniProt P21728); assay: In vitro SafetyScreen panel; type: binding
T20 construct: Eurofins Discovery (contract panel) Item PP223
Method: as §1

Adrenergic α2B = target: T21, Adrenergic α2B (Homo sapiens, UniProt P18089); assay: In vitro SafetyScreen panel; type: binding
T21 construct: Eurofins Discovery (contract panel) PP223
Method: as §1

Potassium Channel hERG = target: T22, Potassium Channel hERG (Homo sapiens, UniProt Q12809); assay: In vitro SafetyScreen panel; type: binding
T22 construct: Eurofins Discovery (outsourced panel) PP223
Method: as §1

[11] = target: T23, Serotonin (5-Hydroxytryptamine) 5-HT2C (Homo sapiens, UniProt P28335); assay: In vitro SafetyScreen panel; type: binding
T23 construct: Eurofins Discovery (contract panel) PP223
Method: as §1

Adrenergic β1 = target: T24, Adrenergic β1 (Homo sapiens, UniProt P08588); assay: In vitro SafetyScreen panel; type: binding
T24 construct: Eurofins Discovery (contract panel) PP223
Method: as §1

Chemokine CXCR2 (IL-8RB) = target: T25, Chemokine CXCR2 (IL-8RB) (Homo sapiens, UniProt P25025); assay: In vitro SafetyScreen panel; type: binding
T25 construct: Eurofins Discovery (contract panel) PP223
T25 sequence (P25025 whole entry): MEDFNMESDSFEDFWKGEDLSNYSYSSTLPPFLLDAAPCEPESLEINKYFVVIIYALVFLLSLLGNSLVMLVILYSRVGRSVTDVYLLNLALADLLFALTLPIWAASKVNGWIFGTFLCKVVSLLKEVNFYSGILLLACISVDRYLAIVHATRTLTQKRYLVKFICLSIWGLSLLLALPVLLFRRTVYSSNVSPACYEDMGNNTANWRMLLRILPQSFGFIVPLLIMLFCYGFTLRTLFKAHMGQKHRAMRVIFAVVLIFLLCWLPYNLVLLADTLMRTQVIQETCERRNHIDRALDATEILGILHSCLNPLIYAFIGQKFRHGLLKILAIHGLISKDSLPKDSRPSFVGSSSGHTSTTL
Method: as §1

human κ opioid receptor [12] = target: T9, human κ opioid receptor; assay: [3H]diprenorphine binding assay
[13] = target: T26, Peptidase, Angiotensin Converting Enzyme (Oryctolagus cuniculus, UniProt P12822); assay: In vitro SafetyScreen panel; type: biochemical, rabbit
T26 construct: Eurofins Discovery (outsourced panel) PP223
Method: as §1

T1 sequence (P35354 18-604): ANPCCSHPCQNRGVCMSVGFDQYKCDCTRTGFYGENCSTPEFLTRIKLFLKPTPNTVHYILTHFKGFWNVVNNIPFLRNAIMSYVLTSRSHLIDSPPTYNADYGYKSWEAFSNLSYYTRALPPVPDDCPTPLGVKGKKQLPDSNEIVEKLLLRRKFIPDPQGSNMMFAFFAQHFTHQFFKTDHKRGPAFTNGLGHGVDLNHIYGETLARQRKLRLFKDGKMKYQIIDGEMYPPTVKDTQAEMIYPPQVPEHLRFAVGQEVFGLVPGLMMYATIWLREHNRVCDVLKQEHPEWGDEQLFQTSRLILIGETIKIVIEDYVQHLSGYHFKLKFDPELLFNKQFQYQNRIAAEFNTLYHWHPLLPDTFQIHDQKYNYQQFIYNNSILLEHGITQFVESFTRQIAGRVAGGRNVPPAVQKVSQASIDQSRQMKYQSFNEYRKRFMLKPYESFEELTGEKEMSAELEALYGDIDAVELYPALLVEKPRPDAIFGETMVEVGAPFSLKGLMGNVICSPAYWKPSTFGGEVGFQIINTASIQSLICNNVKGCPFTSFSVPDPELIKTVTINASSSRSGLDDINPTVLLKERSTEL

CC(=O)N1CC2(CCN(C(=O)[C@@H](CCCCN)NC(=O)[C@@H](CC(C)C)NC(=O)[C@@H](Cc3ccccc3)NC(=O)[C@H](N)Cc3ccccc3)CC2)C1 [HSK21542, 7-(D-phenylalanyl-D-phenylalanyl-D-leucyl-D-lysyl)-2-acetyl-2,7-diazaspiro (3.5)nonane]
inhibition at 10 µM (Cyclooxygenase COX-2): 12% | inhibition at 10 µM (Monoamine Oxidase MAO-B): 11% | inhibition at 10 µM [1]: -1% | inhibition at 10 µM (Monoamine Oxidase MAO-A): 0% | inhibition at 10 µM [2]: 17% | inhibition at 10 µM [3]: 6% | inhibition at 10 µM (Cyclooxygenase COX-1): 9% | inhibition at 10 µM [4]: -8% | effect on locomotor activity / total distance traveled (mice): did not significantly affect | EC50 (human κ opioid receptor [5]): 0.00241 nM | inhibition at 10 µM [6]: -5% | effect on respiratory rate (ICR mice): no obvious effects | inhibition at 10 µM (Dopamine D2L): -6% | inhibition at 10 µM [7]: 19% | inhibition at 10 µM (Melanocortin MC4): 27% | inhibition at 10 µM [8]: 10% | inhibition at 10 µM [9]: 19% | inhibition at 10 µM (Muscarinic M2): 1% | inhibition at 10 µM (Adrenergic α1B): 3% | inhibition at 10 µM (Muscarinic M4): 3% | inhibition at 10 µM [10]: -12% | inhibition at 10 µM (Dopamine D1): 3% | inhibition at 10 µM (Adrenergic α2B): -6% | inhibition at 10 µM (Potassium Channel hERG): 1% | inhibition at 10 µM [11]: 0% | inhibition at 10 µM (Adrenergic β1): 11% | inhibition at 10 µM (Chemokine CXCR2 (IL-8RB)): 4% | IC50 (human κ opioid receptor [12]; HEK-293 membranes expressing human KOR, 0.6 nM [3H]diprenorphine, 25°C, 60 min, read-out: IC50 for inhibition of [3H]diprenorphine binding to KOR): 0.54 nM | Kd (human κ opioid receptor [12]; competitive binding kinetic model, [3H]diprenorphine, read-out: Kd for binding to KOR (binding kinetics)): 0.068 nM | inhibition at 10 µM [13]: 5%
